These results are taken from paper PMC6152377, “Structure-Activity Relationships of Acyclic Selenopurine Nucleosides as Antiviral Agents” (Molecules : A Journal of Synthetic Chemistry and Natural …, 2017).

As a reminder, the EC50 is the midpoint of the concentration-response curve. As usually defined, the CC50 is the concentration giving 50% cytotoxicity. For orientation: melting point means the temperature, or range, at which the solid turns liquid.

For the first series, the system named is HSV-1 (strain F, VR-733). Kind of series: CPE inhibition antiviral assay, HSV-1. Particulars: Human alphaherpesvirus 1, 72 h, inhibition of virus-induced cytopathic effect by 50%, MTT readout, 3 days. The class given is cell-based, herpes simplex virus (HSV)-1. On the procedure: (§1) All the final compounds 3a–f and 4a–g were assayed for their antiviral activity against several herpes viruses such as HSV-1 (strain F, VR-733), HSV-2 (strain MS, VR-540), VZV (Ellen, VR-1367), and HCMV (Davis, VR-807). Cytotoxicity data were measured in HEL299 (CCL-137) cells as described previously. […] Antiviral activity was measured using a standard cytopathic (CPE) inhibition assay as described before. Briefly, Vero cells in stationary phase were infected with the virus at a multiplicity of infection of 2–4 CCID50 (50% cell culture inhibitory dose) per each well of 96-well plates. After 2 h of adsorption at 37 °C, the liquid was aspirated and 100 μL of Dulbeco’s modified eagle’s media (DMEM)/2% fetal bovine serum (FBS) containing a compound was applied to each well in duplicate for each concentration and further incubated for 3 days. Antiviral activity was measured by MTT assay and expressed as the EC50. Cytocidal assay was performed as a control experiment for the antiviral assay. It was carried out simultaneously with the antiviral assay described above using mock instead of virus for infection, and cell viability was measured by MTT assay. The concentration of the compound responsible for 50% reduction of cell growth was calculated and expressed as CC50.
In general terms: Cytopathic effects are the visible damage that an infection or toxin causes in cultured cells.
The molecule `Nc1ncnc2c1ncn2C[Se]C(CO)CO` [Compound 3f, 2-((6-Amino-9H-purin-9-yl)methylselanyl)propane-1,3-diol] showed an EC50 above 100 µM.
In turn, `CNc1nc(N)nc2c1ncn2C[Se]CCO` [Compound 4b, 2-((2-Amino-6-(methylamino)-9H-purin-9-yl)methylselanyl) ethanol] registered a half-maximal effective concentration (EC50) of 14.3 µM.
The molecule `Nc1nc(N)c2ncn(C[Se]CCO)c2n1` [Compound 4c, 2-((2,6-Diamino-9H-purin-9-yl)methylselanyl) ethanol] gave an EC50 of 15.4 µM.
The same measure, in the same setting: under `CNc1nc(N)nc2c1ncn2C[Se]C(CO)CO` [Compound 4e, 2-((2-Amino-6-(methylamio)-9H-purin-9-yl)methylselanyl) propane-1,3-diol] stands above 100 µM; under `Nc1nc(N)c2ncn(C[Se]C(CO)CO)c2n1` [Compound 4f, 2-((2,6-Diamino-9H-purin-9-yl)methylselanyl)propane-1,3-diol], above 100 µM; under `Nc1nc(NC2CC2)c2ncn(C[Se]C(CO)CO)c2n1` [Compound 4g, 2-((2-Amino-6-(cyclopropylamino)-9H-purin-9-yl)methylselanyl)propane-1,3-diol], above 100 µM.

Another series has as its system HSV-2 (strain MS, VR-540). Briefly: CPE inhibition antiviral assay, HSV-2. The class given is cell-based. Particulars: Human alphaherpesvirus 2, 72 h, inhibition of virus-induced cytopathic effect by 50%, MTT readout, 3 days. As to the method:
as §1
As to `Nc1ncnc2c1ncn2C[Se]C(CO)CO` [Compound 3f, 2-((6-Amino-9H-purin-9-yl)methylselanyl)propane-1,3-diol], the EC50 was above 100 µM.
As to `CNc1nc(N)nc2c1ncn2C[Se]CCO` [Compound 4b, 2-((2-Amino-6-(methylamino)-9H-purin-9-yl)methylselanyl) ethanol], the half-maximal effective concentration (EC50) turned out to be 17.6 µM.
`Nc1nc(N)c2ncn(C[Se]CCO)c2n1` [Compound 4c, 2-((2,6-Diamino-9H-purin-9-yl)methylselanyl) ethanol] came in with an EC50 of 23.2 µM.
The molecule `CNc1nc(N)nc2c1ncn2C[Se]C(CO)CO` [Compound 4e, 2-((2-Amino-6-(methylamio)-9H-purin-9-yl)methylselanyl) propane-1,3-diol] gave a concentration giving a half-maximal response (EC50) above 100 µM.
Consider `Nc1nc(N)c2ncn(C[Se]C(CO)CO)c2n1` [Compound 4f, 2-((2,6-Diamino-9H-purin-9-yl)methylselanyl)propane-1,3-diol], for which the half-maximal effective concentration (EC50) is above 100 µM.
`Nc1nc(NC2CC2)c2ncn(C[Se]C(CO)CO)c2n1` [Compound 4g, 2-((2-Amino-6-(cyclopropylamino)-9H-purin-9-yl)methylselanyl)propane-1,3-diol] gave an EC50 above 100 µM.

The next series has as its system VZV (Ellen, VR-1367). Kind of series: CPE inhibition antiviral assay, VZV. The class given is cell-based, varicella-zoster virus (VZV). Particulars: Human alphaherpesvirus 3; inhibition of virus-induced cytopathic effect by 50%; strain Ellen; MTT readout. On the procedure:
as §1
For the molecule `Nc1ncnc2c1ncn2C[Se]C(CO)CO` [Compound 3f, 2-((6-Amino-9H-purin-9-yl)methylselanyl)propane-1,3-diol], the half-maximal effective concentration (EC50) is above 100 µM.
Turning to `CNc1nc(N)nc2c1ncn2C[Se]CCO` [Compound 4b, 2-((2-Amino-6-(methylamino)-9H-purin-9-yl)methylselanyl) ethanol], the EC50 was above 100 µM.
With `Nc1nc(N)c2ncn(C[Se]CCO)c2n1` [Compound 4c, 2-((2,6-Diamino-9H-purin-9-yl)methylselanyl) ethanol], the EC50 was above 100 µM.
In turn, `CNc1nc(N)nc2c1ncn2C[Se]C(CO)CO` [Compound 4e, 2-((2-Amino-6-(methylamio)-9H-purin-9-yl)methylselanyl) propane-1,3-diol] yielded a concentration for a half-maximal effect (EC50) above 100 µM.
On the same count and under the same terms, the value for `Nc1nc(N)c2ncn(C[Se]C(CO)CO)c2n1` [Compound 4f, 2-((2,6-Diamino-9H-purin-9-yl)methylselanyl)propane-1,3-diol] was above 100 µM; that for `Nc1nc(NC2CC2)c2ncn(C[Se]C(CO)CO)c2n1` [Compound 4g, 2-((2-Amino-6-(cyclopropylamino)-9H-purin-9-yl)methylselanyl)propane-1,3-diol] was above 100 µM.

A further series deals with HCMV (Davis, VR-807). Briefly: CPE inhibition antiviral assay, HCMV. The class given is cell-based, human cytomegalovirus (HCMV). Particulars: Human betaherpesvirus 5; inhibition of virus-induced cytopathic effect by 50%; strain Davis; MTT readout. On the procedure:
as §1
Molecule `Nc1ncnc2c1ncn2C[Se]C(CO)CO` [Compound 3f, 2-((6-Amino-9H-purin-9-yl)methylselanyl)propane-1,3-diol] displayed an EC50 of 65.2 µM.
Molecule `CNc1nc(N)nc2c1ncn2C[Se]CCO` [Compound 4b, 2-((2-Amino-6-(methylamino)-9H-purin-9-yl)methylselanyl) ethanol] had an EC50 above 100 µM.
With `Nc1nc(N)c2ncn(C[Se]CCO)c2n1` [Compound 4c, 2-((2,6-Diamino-9H-purin-9-yl)methylselanyl) ethanol], the EC50 was above 100 µM.
Molecule `CNc1nc(N)nc2c1ncn2C[Se]C(CO)CO` [Compound 4e, 2-((2-Amino-6-(methylamio)-9H-purin-9-yl)methylselanyl) propane-1,3-diol] registered an EC50 of 32.1 µM.
The molecule `Nc1nc(N)c2ncn(C[Se]C(CO)CO)c2n1` [Compound 4f, 2-((2,6-Diamino-9H-purin-9-yl)methylselanyl)propane-1,3-diol] showed an EC50 of 34.3 µM.
Regarding `Nc1nc(NC2CC2)c2ncn(C[Se]C(CO)CO)c2n1` [Compound 4g, 2-((2-Amino-6-(cyclopropylamino)-9H-purin-9-yl)methylselanyl)propane-1,3-diol], the 50% effective concentration (EC50) was found to be 41.1 µM.

System in another series: not listed separately
Kind of series: Cytotoxicity (cytocidal) assay, MTT. In kind it is cell-based. Particulars: human, 50% reduction of cell viability, HEL299 cells, mock infection. On the procedure: as §1
With `Nc1ncnc2c1ncn2C[Se]C(CO)CO` [Compound 3f, 2-((6-Amino-9H-purin-9-yl)methylselanyl)propane-1,3-diol], the CC50 at 3 days is above 100 µM.
Same read-out and setting: under `CNc1nc(N)nc2c1ncn2C[Se]CCO` [Compound 4b, 2-((2-Amino-6-(methylamino)-9H-purin-9-yl)methylselanyl) ethanol] stands above 100 µM.
`Nc1nc(N)c2ncn(C[Se]CCO)c2n1` [Compound 4c, 2-((2,6-Diamino-9H-purin-9-yl)methylselanyl) ethanol] came in with a half-maximal cytotoxic concentration (CC50) at 3 days above 100 µM.
As to `CNc1nc(N)nc2c1ncn2C[Se]C(CO)CO` [Compound 4e, 2-((2-Amino-6-(methylamio)-9H-purin-9-yl)methylselanyl) propane-1,3-diol], the CC50 at 3 days is above 100 µM.
The molecule `Nc1nc(N)c2ncn(C[Se]C(CO)CO)c2n1` [Compound 4f, 2-((2,6-Diamino-9H-purin-9-yl)methylselanyl)propane-1,3-diol] yielded a cytotoxic concentration (CC50) at 3 days above 100 µM.
On to `Nc1nc(NC2CC2)c2ncn(C[Se]C(CO)CO)c2n1` [Compound 4g, 2-((2-Amino-6-(cyclopropylamino)-9H-purin-9-yl)methylselanyl)propane-1,3-diol], for which the half-maximal cytotoxic concentration (CC50) at 3 days is above 100 µM.

System in another series: not given
Assay: not given
Conditions: not given
For `Nc1ncnc2c1ncn2C[Se]C(CO)CO` [Compound 3f, 2-((6-Amino-9H-purin-9-yl)methylselanyl)propane-1,3-diol], the melting point was in the range of 186 to 188 °C.
`CNc1nc(N)nc2c1ncn2C[Se]CCO` [Compound 4b, 2-((2-Amino-6-(methylamino)-9H-purin-9-yl)methylselanyl) ethanol]: the melting point lay within 183 to 185 °C.
The molecule `Nc1nc(N)c2ncn(C[Se]CCO)c2n1` [Compound 4c, 2-((2,6-Diamino-9H-purin-9-yl)methylselanyl) ethanol] displayed a melting point of 84 to 86 °C.
Still for that read-out and setting: the value for `CNc1nc(N)nc2c1ncn2C[Se]C(CO)CO` [Compound 4e, 2-((2-Amino-6-(methylamio)-9H-purin-9-yl)methylselanyl) propane-1,3-diol] was 140 to 143 °C; that for `Nc1nc(N)c2ncn(C[Se]C(CO)CO)c2n1` [Compound 4f, 2-((2,6-Diamino-9H-purin-9-yl)methylselanyl)propane-1,3-diol] was 193 to 196 °C.

For the next series, the system named is HSV-1 (strain F, VR-733).
Assay: not given
Details: method as in PMID 20466277. Particulars: inhibition of virus-induced cytopathic effect by 50%, ref [11]; cited from earlier work.
Consider `Nc1nc2c(ncn2C[Se]CCO)c(=O)[nH]1` [Compound 4a, 9-((2-Hydroxyethylselanyl)methyl)-2-amino-1H purin-6(9H)-one], for which the EC50 was 1.47 µM.
On to `Nc1nc2c(ncn2C[Se]C(CO)CO)c(=O)[nH]1` [Compound 4d, 9-((1,3-Dihydroxypropan-2-ylselanyl)methyl)-2-amino-1H-purin-6(9H)-one], for which the EC50 was above 100 µM.

Another series concerns HSV-2 (strain MS, VR-540).
Assay: not given
Details: method as in PMID 20466277. Particulars: inhibition of virus-induced cytopathic effect by 50%, ref [11]; cited from earlier work.
On to `Nc1nc2c(ncn2C[Se]CCO)c(=O)[nH]1` [Compound 4a, 9-((2-Hydroxyethylselanyl)methyl)-2-amino-1H purin-6(9H)-one], for which the EC50 is 6.34 µM.
On to `Nc1nc2c(ncn2C[Se]C(CO)CO)c(=O)[nH]1` [Compound 4d, 9-((1,3-Dihydroxypropan-2-ylselanyl)methyl)-2-amino-1H-purin-6(9H)-one], for which the EC50 is above 100 µM.

The test system of the next series is VZV (Ellen, VR-1367).
Assay: not given
Also noted: method as in PMID 20466277. Particulars: inhibition of virus-induced cytopathic effect by 50%; strain Ellen; ref [11]; cited from earlier work.
`Nc1nc2c(ncn2C[Se]CCO)c(=O)[nH]1` [Compound 4a, 9-((2-Hydroxyethylselanyl)methyl)-2-amino-1H purin-6(9H)-one]: the EC50 was above 100 µM.
On to `Nc1nc2c(ncn2C[Se]C(CO)CO)c(=O)[nH]1` [Compound 4d, 9-((1,3-Dihydroxypropan-2-ylselanyl)methyl)-2-amino-1H-purin-6(9H)-one], for which the concentration for a half-maximal effect (EC50) was above 100 µM.

Another series has as its system HCMV (Davis, VR-807).
Assay: not given
Details: method as in PMID 20466277. Particulars: inhibition of virus-induced cytopathic effect by 50%; strain Davis; ref [11]; cited from earlier work.
On to `Nc1nc2c(ncn2C[Se]CCO)c(=O)[nH]1` [Compound 4a, 9-((2-Hydroxyethylselanyl)methyl)-2-amino-1H purin-6(9H)-one], for which the EC50 was above 100 µM.
As for `Nc1nc2c(ncn2C[Se]C(CO)CO)c(=O)[nH]1` [Compound 4d, 9-((1,3-Dihydroxypropan-2-ylselanyl)methyl)-2-amino-1H-purin-6(9H)-one], the EC50 was 53.1 µM.

The next series relates to HEL299 (CCL-137) cells.
Assay: not given
Particulars: read-out: CC50 HEL299, 50% reduction of cell viability, ref [11]; cited from earlier work.
In the case of `Nc1nc2c(ncn2C[Se]CCO)c(=O)[nH]1` [Compound 4a, 9-((2-Hydroxyethylselanyl)methyl)-2-amino-1H purin-6(9H)-one], the cytotoxic concentration (CC50) was above 100 µM.
For `Nc1nc2c(ncn2C[Se]C(CO)CO)c(=O)[nH]1` [Compound 4d, 9-((1,3-Dihydroxypropan-2-ylselanyl)methyl)-2-amino-1H-purin-6(9H)-one], the half-maximal cytotoxic concentration (CC50) is above 100 µM.
